Reference: patent publication US20030138423A1, “Method of treating inflammation with HIV-1 protease inhibitors and their derivatives” (CEDARS-SINAI MEDICAL CENTER, priority 2001, published 2003)
Entries after “also recorded” stand apart in the source; their conditions may differ.

Columns and labels:
IL-6 = assay: LPS-induced IL-6 luciferase activation in HMEC; assay type: cell-based, human; conditions: 1-hour pretreatment
Source text: Interleukin-6 (IL-6) is a known proinflammatory cytokine that mediates development of LPS-induced sepsis and septic shock.

TNF-α = assay: LPS-induced TNF-α production in THP-LTR-Luc cells, ELISA; assay type: cell-based; conditions: THP-LTR-Luc cells (FIG. 9 legend)
Experimental: After five hours of LPS stimulation, supernatants from HMEC were analyzed for TNF-α production by using an ELISA kit (obtained from R&D Systems; Minneapolis, Minn.) according to manufacturer's instructions. All data for TNF-α represent the average of triplicate samples ±S.D. Each experiment was repeated at least twice.

NF-κB [1] = assay: TNF-α-induced NF-κB activation in HMEC; assay type: cell-based, human; conditions: one-hour pretreatment, TNF-α 100 ng/ml
20S proteasome = 20S proteasome (Mus musculus, UniProt O55234); conditions: literature; cited from earlier work
[2] = tested on: lymphocytic choriomeningitis virus (LCMV); conditions: mice infected with LCMV, literature; cited from earlier work
[3] = tested on: MB-1 (X) and/or LMP7 proteasome subunits; conditions: vinyl sulfone inhibitor 125I-NLVS, literature; cited from earlier work
NF-κB [4] = assay: LPS-induced NF-κB luciferase activation in HMEC; conditions: pretreatment before LPS, nelfinavir 1, 3, 6 μg/ml
NF-κB [5] = assay: PSM-induced NF-κB luciferase activation in HMEC; assay type: cell-based, human; conditions: one-hour pretreatment
NF-κB [6] = assay: STF-induced NF-κB luciferase activation in HMEC; assay type: cell-based, human; conditions: one-hour pretreatment
IκB-α = assay: LPS-induced IκB-α degradation in HMEC, Western blot; assay type: cell-based, human; conditions: HMEC pretreated one hour, LPS 30, 60, 90 minutes
Experimental: Conditioned endothelial cells were lysed for 30 minutes on ice in a lysis buffer containing 0.1 mM ethylenediamine tetra-acetic acid (“EDTA,” available from Sigma), 10 mM NaF, 1 mM Na3VO4, 0.1% Triton X-100, 20 mM Tris-HCl (pH 7.5), and 1 μg/ml each of the protease inhibitors pepstatin, leupeptin, aprotinin, antipain, and chymostatin (all available from Roche).
Following lysis, cell debris was removed by centrifugation (14,000×g, 4° C., 1-2 minutes). Protein concentrations were determined using the Bradford assay. 50 μg of total protein was added in Laemmli buffer, boiled for 5 minutes, resolved by 10% sodium dodecyl sulphate polyacrylamide gel electrophoresis (“SDS-PAGE”) in Tris/glycine/SDS buffer (25 mM Tris, 250 mM glycine, 0.1% SDS), and blotted onto Immunobilon P transfer membranes (obtained from Amersham Pharmacia Biotech UK Ltd.; Buckinghamshire, England, hereinafter “Amersham”) (100 V, 1.5 hours, 4° C.). […] Membranes were thereafter and washed five times in PBST, and bands were detected using ECL reagents (obtained from Amersham) according to manufacturer's description.
Upon exposure of immune system cells to bacterial and mycobacterial antigens, IκB-α degradation is the key step before NF-κB activation. We assessed the effect of nelfinavir pretreatment of HMEC on LPS-induced IκB-α degradation. […] IκB-α degradation was assessed by Western Blot analysis for phosphorylated IκB-α.

HMEC = assay: LDH release (cell death) in HMEC; assay type: cell-based, human; conditions: pretreatment prior to LPS stimulation
Experimental: For the quantification of nelfinavir-induced cell death, lactate dehydrogenase (LDH) activity in HMEC culture supernatants was measured with a cytotoxicity detection kit (obtained from Roche Diagnostics; Indianapolis, Ind., hereinafter “Roche”) according to manufacturer's instructions. Percentage of LDH activity in the supernatants was calculated according to the following: [(Experimental Value—LDH activity released from untreated cells)/(Maximum Releasable LDH Activity in the Cells by 1% Triton X-100-LDH Activity Released from Untreated Cells)]×100.

[7] = molecular target: T1, erythrocyte 20S proteasome (Homo sapiens, UniProt P28074); assay: 20S Proteasome Assay, Suc-LLVY-AMC substrate; assay type: biochemical; conditions: SDS-preactivated erythrocyte 20S proteasome
T1 construct: purchased Biomol Research Laboratories, Inc; host or cells: erythrocytes (purified native complex)
Experimental: The effect of nelfinavir on 20S proteasome activity was assessed using a 20S Proteasome Assay Kit (obtained from Biomol Research Laboratories, Inc.; Plymouth Meeting, Pa.) according to manufacturer's instructions. Briefly, erythrocyte 20S proteasome that is preactivated by SDS was added to Suc-LLVY-AMC fluorogenic peptide substrate, which is used to measure the chymotrypsin like peptidase activity, with or without nelfinavir. A proteasome inhibitor, lactacystin, was included as a control. The microtiter plate was read at an approximate excitation of 360 nm and at emission 460 nm. All data represent the average of triplicate samples ±S.D.

HIV-LTR = assay: LPS-induced HIV-LTR luciferase activation in HMEC; conditions: nelfinavir 1, 3, 6 μg/ml (FIG. 2) or 0.5, 2, 4 μg/ml (FIG. 6)

## CC(C)c1nc(CN(C)C(=O)N[C@H](C(=O)N[C@@H](Cc2ccccc2)C[C@H](O)[C@H](Cc2ccccc2)NC(=O)OCc2cncs2)C(C)C)cs1 [ritonavir]
IL-6
  LPS-induced IL-6 luciferase activation: blocked LPS-induced IL-6 luciferase activation
TNF-α
  LPS-induced TNF-α production: blocked production to a lesser extent
NF-κB [1]
  TNF-α-induced NF-κB activation: down-regulated
20S proteasome
  chymotrypsin-like activity of the 20S proteasome: selectively inhibit the chymotrypsin-like activity of the 20S proteasome
[2]
  LCMV replication: not affected
[3]
  protection of proteasome subunits from covalent active site modification: protected the MB-1 (X) and/or LMP7 proteasome subunits from covalent active site modification
NF-κB [4]
  LPS-induced NF-κB activation (percent NF-κB luciferase activity): blocked LPS-induced NF-κB activation; also recorded: more potent than indinavir; also recorded: down-regulation of LPS-induced NF-κB activation

## CC(C)(C)NC(=O)[C@@H]1C[C@@H]2CCCC[C@@H]2CN1C[C@@H](O)[C@H](Cc1ccccc1)NC(=O)[C@H](CC(N)=O)NC(=O)c1ccc2ccccc2n1 [saquinavir]
IL-6
  LPS-induced IL-6 luciferase activation: blocked LPS-induced IL-6 luciferase activation
TNF-α
  LPS-induced TNF-α production: blocked TNF-α production
NF-κB [1]
  TNF-α-induced NF-κB activation: down-regulated
20S proteasome
  chymotrypsin-like activity of the 20S proteasome: inhibited chymotrypsin-like activity to a significantly lesser degree
NF-κB [4]
  LPS-induced NF-κB activation (percent NF-κB luciferase activity): blocked LPS-induced NF-κB activation; also recorded: more potent than indinavir; also recorded: down-regulation of LPS-induced NF-κB activation

## Cc1c(O)cccc1C(=O)N[C@@H](CSc1ccccc1)[C@H](O)CN1C[C@H]2CCCC[C@H]2C[C@H]1C(=O)NC(C)(C)C [nelfinavir]
NF-κB [5]
  PSM-induced NF-κB activation (percent NF-κB luciferase activity): blocked NF-κB activation; also recorded: blocked both STF and PSM
NF-κB [6]
  STF-induced NF-κB activation (percent NF-κB luciferase activity): blocked NF-κB activation; also recorded: blocked both STF and PSM
IκB-α
  LPS-induced IκB-α degradation: markedly less LPS-induced IκB-α degradation; also recorded: delayed the degradation; also recorded: a delay in LPS-induced IκB-α degradation
HMEC
  cell death (LDH release): without inducing apoptosis or death of the cells; also recorded: did not induce cell death; also recorded: not induced
IL-6
  LPS-induced IL-6 luciferase activation: blocked LPS-induced IL-6 luciferase activation
TNF-α
  LPS-induced TNF-α production: blocked production to a lesser extent
NF-κB [1]
  TNF-α-induced NF-κB activation: down-regulated
[7]
  chymotrypsin-like activity of 20S proteasome: did not inhibit the chymotrypsin-like activity of 20s proteasome
20S proteasome
  chymotrypsin-like activity of the 20S proteasome: no inhibition at all
NF-κB [4]
  LPS-induced NF-κB activation (percent NF-κB luciferase activity): blocked LPS-induced NF-κB activation in a dose-dependent manner; also recorded: decreased the NF-κB activity
HIV-LTR
  LPS-induced HIV-LTR activation (percent HIV-LTR luciferase activity): blocked LPS-induced HIV-LTR activation in a dose-dependent manner

## CC(C)(C)NC(=O)[C@@H]1CN(Cc2cccnc2)CCN1C[C@@H](O)C[C@@H](Cc1ccccc1)C(=O)N[C@H]1c2ccccc2C[C@H]1O [indinavir]
IL-6
  LPS-induced IL-6 luciferase activation: blocked LPS-induced IL-6 luciferase activation
TNF-α
  LPS-induced TNF-α production: blocked TNF-α production
20S proteasome
  chymotrypsin-like activity of the 20S proteasome: no inhibition at all
